Experimental data taken from patent US8778964B2, “Hydroxy-substituted imidazo[1,2-a]-pyridinecarboxamides and their use” (Bayer Pharma Aktiengesellschaft, priority 2012, dated 2014).
Where a name gives a salt, the structure may show the parent alone.

Test system: recombinant guanylate cyclase reporter cell line
Experiment: Action on recombinant guanylate cyclase reporter cell line (MEC)
Type: cell-based
Conditions: in some cases mean values obtained from individual determinations
Experimental: B-2. Action on Recombinant Guanylate Cyclase Reporter Cell Line
The cellular action of the compounds according to the invention is determined on a recombinant guanylate cyclase reporter cell line, as described in F. Wunder et al., Anal. Biochem. 339, 104-112 (2005).
Representative values (MEC=minimal effective concentration) for the compounds according to the invention are shown in the following table (in some cases as mean values obtained from individual determinations): […]

With Cc1nc2c(OCc3c(F)cccc3F)cccn2c1C(=O)NC(CO)c1cccnc1 (racemic) [Example 124, rac-8-[(2,6-Difluorobenzyl)oxy]-N-[2-hydroxy-1-(pyridin-3-yl)ethyl]-2-methylimidazo[1,2-a]-pyridine-3-carboxamide] the minimal effective concentration was 0.3 µM.
Work on Cc1nc2c(OCc3c(F)cccc3F)cccn2c1C(=O)NC(CO)CCCC(F)(F)F (single isomer, unassigned; ent-8) [Example 123, ent-8-[(2,6-Difluorobenzyl)oxy]-2-methyl-N-(6,6,6-trifluoro-1-hydroxyhexan-2-yl)imidazo[1,2-a]-pyridine-3-carboxamide] yielded a minimal effective concentration of 0.03 µM.
Work on Cc1nc2c(OCC3CCCCC3)cccn2c1C(=O)N[C@H](CO)C(C)C [Example 93, 8-(cyclohexylmethoxy)-N-[(2S)-1-hydroxy-3-methylbutan-2-yl]-2-methylimidazo[1,2-a]pyridine-3-carboxamide] yielded a minimal effective concentration of 1 µM.
With CCc1nc2c(OCC3CCCCC3)cccn2c1C(=O)N[C@H](C)CO [Example 55, 8-(Cyclohexylmethoxy)-2-ethyl-N-[(2R)-1-hydroxypropan-2-yl]imidazo[1,2-a]pyridine-3-carboxamide formic acid salt] the minimal effective concentration was 0.1 µM.
Work on Cc1nc2c(OCc3c(F)cccc3F)cccn2c1C(=O)NC(CCC(F)(F)F)C(C)(C)O (racemic) [Example 149, rac-8-[(2,6-difluorobenzyl)oxy]-2-methyl-N-(6,6,6-trifluoro-2-hydroxy-2-methylhexan-3-yl)imidazo[1,2-a]pyridine-3-carboxamide] yielded a minimal effective concentration of 0.1 µM.
In the case of CC[C@H](CO)NC(=O)c1c(C)nc2c(OCc3ccccc3)cccn12 [Example 17, 8-(Benzyloxy)-N-[(2R)-1-hydroxybutan-2-yl]-2-methylimidazo[1,2-a]pyridine-3-carboxamide], the minimal effective concentration is reported as 3 µM.
Cc1nc2c(OCc3cccc(Cl)c3Cl)cccn2c1C(=O)NC(CO)CO [Example 49, 8-[(2,3-dichlorobenzyl)oxy]-N-(1,3-dihydroxypropan-2-yl)-2-methylimidazo[1,2-a]-pyridine-3-carboxamide] showed a minimal effective concentration of 2 µM.
Cc1nc2c(OCc3ccccc3)cccn2c1C(=O)NCCC1(O)CCCC1 [Example 48, 8-(benzyloxy)-N-[2-(1-hydroxycyclopentyl)ethyl]-2-methylimidazo[1,2-a]pyridine-3-carboxamide] gave a minimal effective concentration of 1 µM.
Cc1nc2c(OCc3ccccc3Cl)cccn2c1C(=O)NC(CO)CO [Example 50, 8-[(2-chlorobenzyl)oxy]-N-(1,3-dihydroxypropan-2-yl)-2-methylimidazo[1,2-a]pyridine-3-carboxamide] was tested, and the minimal effective concentration was 6.5 µM.
In the case of Cc1nc2c(OCc3c(F)cccc3F)cccn2c1C(=O)NCC(C)(C)CO [Example 41, 8-[(2,6-difluorobenzyl)oxy]-N-(3-hydroxy-2,2-dimethylpropyl)-2-methylimidazo[1,2-a]-pyridine-3-carboxamide], the minimal effective concentration is reported as 3 µM.
CCCc1nc2c(OCC3CCCCC3)cccn2c1C(=O)N[C@@H](C)CO [Example 57, 8-(cyclohexylmethoxy)-N-[(2S)-1-hydroxypropan-2-yl]-2-propylimidazo[1,2-a]-pyridine-3-carboxamide] showed a minimal effective concentration of 1 µM.
Compound CCCC[C@H](CO)NC(=O)c1c(C)nc2c(OCc3cccc(C(F)(F)F)c3F)cccn12 [Example 14, 8-{[2-fluoro-3-(trifluoromethyl)benzyl]oxy}-N-[(2R)-1-hydroxyhexan-2-yl]-2-methylimidazo[1,2-a]-pyridine-3-carboxamide] has a minimal effective concentration of 3 µM.
Cc1nc2c(OCC3CCC3)cccn2c1C(=O)NCCC1(O)CCCC1 [Example 97, 8-(cyclobutylmethoxy)-N-[2-(1-hydroxycyclopentyl)ethyl]-2-methylimidazo[1,2-a]pyridine-3-carboxamide] was tested, and the minimal effective concentration was 1 µM.
CCC[C@@H](CO)NC(=O)c1c(C)nc2c(OCC3CCCCC3)cccn12 [Example 89, 8-(cyclohexylmethoxy)-N-[(2S)-1-hydroxypentan-2-yl]-2-methylimidazo[1,2-a]pyridine-3-carboxamide] was tested, and the minimal effective concentration was 1 µM.
Work on Cc1cc(OCCC(C)C)c2nc(C)c(C(=O)NC(CCCC(F)(F)F)C(C)(C)O)n2c1 (single isomer, unassigned; ent-2) [Example 168, ent-2,6-Dimethyl-8-(3-methylbutoxy)-N-(7,7,7-trifluoro-2-hydroxy-2-methylheptan-3-yl)imidazo-[1,2-a]pyridine-3-carboxamide] yielded a minimal effective concentration of 3 µM.
Cc1nc2c(OCC3CCCCC3)cccn2c1C(=O)NC1(CO)CCCC1 [Example 92, 8-(cyclohexylmethoxy)-N-[1-(hydroxymethyl)cyclopentyl]-2-methylimidazo[1,2-a]pyridine-3-carboxamide] was tested, and the minimal effective concentration was 1 µM.
Work on Cc1nc2c(OCc3c(F)cccc3F)cccn2c1C(=O)NCCC1(O)CCCCC1 [Example 116, 8-[(2,6-difluorobenzyl)oxy]-N-[2-(1-hydroxycyclohexyl)ethyl]-2-methylimidazo[1,2-a]pyridine-3-carboxamide] yielded a minimal effective concentration of 0.3 µM.
Cc1nc2c(OCC3CCCCC3)cccn2c1C(=O)N[C@@H]1CCCC[C@H]1O (racemic) [Example 78, (rac)-8-(cyclohexylmethoxy)-N-[(trans)-2-hydroxycyclohexyl]-2-methylimidazo[1,2-a]-pyridine-3-carboxamide] gave a minimal effective concentration of 0.3 µM.
CCCC[C@H](CO)NC(=O)c1c(C)nc2c(OCc3cccc(Cl)c3Cl)cccn12 [Example 9, 8-[(2,3-dichlorobenzyl)oxy]-N-[(2R)-1-hydroxy-hexan-2-yl]-2-methylimidazo[1,2-a]pyridine-3-carboxamide] showed a minimal effective concentration of 0.5 µM.
Cc1nc2c(OCc3c(F)cccc3F)cccn2c1C(=O)NC(CO)CC(F)(F)F (single isomer, unassigned; ent-8) [Example 121, ent-8-[(2,6-Difluorobenzyl)oxy]-2-methyl-N-(4,4,4-trifluoro-1-hydroxybutan-2-yl)imidazo[1,2-a]-pyridine-3-carboxamide] was tested, and the minimal effective concentration was 0.03 µM.
Work on Cc1nc2c(OCc3c(F)cccc3F)cccn2c1C(=O)NCCOCCO [Example 24, 8-[(2,6-difluorobenzyl)oxy]-N-[2-(2-hydroxy-ethoxy)ethyl]-2-methylimidazo[1,2-a]pyridine-3-carboxamide] yielded a minimal effective concentration of 1 µM.
In the case of CCC[C@H](CO)NC(=O)c1c(C)nc2c(OCc3c(F)cccc3F)cccn12 [Example 18, 8-[(2,6-difluorobenzyl)oxy]-N-[(2R)-1-hydroxy-pentan-2-yl]-2-methylimidazo[1,2-a]pyridine-3-carboxamide], the minimal effective concentration is reported as 0.1 µM.
CCCC[C@H](CO)NC(=O)c1c(C2CC2)nc2c(OCc3c(F)cccc3F)cccn12 [Example 134, 2-cyclopropyl-8-[(2,6-difluorobenzyl)oxy]-N-[(2R)-1-hydroxyhexan-2-yl]imidazo[1,2-a]-pyridine-3-carboxamide] showed a minimal effective concentration of 0.3 µM.
CCCC[C@H](CO)NC(=O)c1c(C)nc2c(OCCC(C(F)(F)F)C(F)(F)F)cc(C)cn12 [Example 169, N-[(2R)-1-Hydroxyhexan-2-yl]-2,6-dimethyl-8-[4,4,4-trifluoro-3-(trifluoromethyl)butoxy]imidazo-[1,2-a]pyridine-3-carboxamide] was tested, and the minimal effective concentration was 0.3 µM.
For CC[C@H](C)[C@@H](CO)NC(=O)c1c(C)nc2c(OCC3CCCCC3)cccn12 [Example 91, 8-(cyclohexylmethoxy)-N-[(2S,3S)-1-hydroxy-3-methylpentan-2-yl]-2-methylimidazo[1,2-a]pyridine-3-carboxamide], the minimal effective concentration was 1 µM.
Cc1nc2c(OCc3c(F)cccc3F)cccn2c1C(=O)N[C@@H]1CCC[C@H]1O [Example 36, 8-[(2,6-difluorobenzyl)oxy]-N-[(1R,2R)-2-hydroxycyclopentyl]-2-methylimidazo[1,2-a]-pyridine-3-carboxamide] was tested, and the minimal effective concentration was 0.1 µM.
Work on Cc1nc2c(OCC3CCCCC3)cccn2c1C(=O)NC[C@@H](O)CO [Example 80, 8-(cyclohexylmethoxy)-N-[(2R)-2,3-dihydroxypropyl]-2-methylimidazo[1,2-a]pyridine-3-carboxamide] yielded a minimal effective concentration of 0.3 µM.
Cc1nc2c(OCc3c(F)cccc3F)cccn2c1C(=O)N[C@H](C)CO [Example 118, 8-[(2,6-difluorobenzyl)oxy]-N-[(2R)-1-hydroxypropan-2-yl]-2-methylimidazo[1,2-a]-pyridine-3-carboxamide] gave a minimal effective concentration of 0.3 µM.
With Cc1nc2c(OCC3CCCCC3)cccn2c1C(=O)NCCO [Example 76, 8-(cyclohexylmethoxy)-N-(2-hydroxyethyl)-2-methylimidazo[1,2-a]pyridine-3-carboxamide formate] the minimal effective concentration was 0.3 µM.
For Cc1nc2c(OCc3c(F)cccc3F)cccn2c1C(=O)NC(C)C(O)C(F)(F)F (single isomer, unassigned) [Example 144, 8-[(2,6-Difluorobenzyl)oxy]-2-methyl-N-(4,4,4-trifluoro-3-hydroxybutan-2-yl)imidazo[1,2-a]-pyridine-3-carboxamide], the minimal effective concentration was 0.3 µM.
CCC(O)CNC(=O)c1c(C)nc2c(OCCC(C(F)(F)F)C(F)(F)F)cc(C)cn12 (racemic) [Example 174, rac-N-(2-hydroxybutyl)-2,6-dimethyl-8-[4,4,4-trifluoro-3-(trifluoromethyl)butoxy]imidazo[1,2-a]pyridine-3-carboxamide] was tested, and the minimal effective concentration was 3 µM.
CCCC[C@H](CO)NC(=O)c1c(C)nc2c(OCc3cccc(C)c3F)cccn12 [Example 11, 8-[(2-fluoro-3-methylbenzyl)oxy]-N-[(2R)-1-hydroxyhexan-2-yl]-2-methylimidazo[1,2-a]pyridine-3-carboxamide] showed a minimal effective concentration of 1.5 µM.
Cc1nc2c(OCc3c(F)cccc3F)cccn2c1C(=O)N[C@@H](CO)CCO [Example 129, 8-[(2,6-difluorobenzyl)oxy]-N-[(2R)-1,4-dihydroxybutan-2-yl)-2-methylimidazo[1,2-a]pyridine-3-carboxamide] showed a minimal effective concentration of 3 µM.
